Converted amounts (≈) assume the structure as drawn. The source made the active and inactive calls. The rule behind the calls is not given here.
Columns and labels:
[1] = Cytotoxicity against mouse NIH3T3 cells assessed as reduction in cell proliferation incubated for 48 hrs by CCK-8 assay; format: toxicity, cell-based
HepG2 [2] = assay: cells; details: Homo sapiens, HepG2, 48 h
Hepa 1-6 = assay: cells; details: Mus musculus, Hepa1-6, 48 h
MC-38 = assay: cells; details: Mus musculus, MC-38, 48 h
MCF7 = assay: cells; details: Homo sapiens, MCF7, 48 h
Sphingosine kinase 2 [3] = biological target: T1, Sphingosine kinase 2 (Homo sapiens, UniProt Q9NRA0); assay: Inhibition of SphK2 (unknown origin) using sphingosine as substrate incubated for 30 mins in presence of ATP by ADP-Glo assay
T1 sequence (Q9NRA0 whole entry): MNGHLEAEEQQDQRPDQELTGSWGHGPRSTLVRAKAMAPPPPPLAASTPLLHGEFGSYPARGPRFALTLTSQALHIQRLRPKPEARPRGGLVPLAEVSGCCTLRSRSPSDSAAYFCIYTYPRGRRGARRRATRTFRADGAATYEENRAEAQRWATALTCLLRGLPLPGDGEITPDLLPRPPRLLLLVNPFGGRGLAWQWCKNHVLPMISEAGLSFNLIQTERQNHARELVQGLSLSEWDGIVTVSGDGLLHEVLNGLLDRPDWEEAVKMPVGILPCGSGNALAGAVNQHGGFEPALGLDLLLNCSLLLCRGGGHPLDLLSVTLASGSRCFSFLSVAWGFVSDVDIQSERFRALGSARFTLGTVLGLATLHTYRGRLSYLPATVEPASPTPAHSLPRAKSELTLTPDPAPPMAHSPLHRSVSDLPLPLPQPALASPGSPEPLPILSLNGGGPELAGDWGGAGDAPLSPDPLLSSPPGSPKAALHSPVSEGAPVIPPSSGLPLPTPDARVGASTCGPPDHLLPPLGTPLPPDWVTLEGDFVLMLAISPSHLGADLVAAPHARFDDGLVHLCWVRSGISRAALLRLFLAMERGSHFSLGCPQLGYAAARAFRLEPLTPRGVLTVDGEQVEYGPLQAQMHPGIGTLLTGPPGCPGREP

[4] = Aqueous solubility of compound in phosphate buffer at pH 2.0 by HPLC analysis; format: physicochemical
[5] = Aqueous solubility of compound in phosphate buffer at pH 7.4 by HPLC analysis; format: physicochemical
[6] = Aqueous solubility of compound in phosphate buffer at pH 9.0 by HPLC analysis; format: physicochemical
HepG2 [7] = assay: Downregulation of SIP level in human HepG2 cells incubated for 48 hrs by SIP competitive ELISA method; format: functional, cell-based; details: dose 0-60 µM
HepG2 [8] = assay: Upregulation od SPH level in human HepG2 cell incubated for 48 hrs by SPH competitive ELISA method; format: functional, cell-based; details: dose 0-60 µM
Sphingosine kinase 2 [9] = biological target: T1, Sphingosine kinase 2; assay: Inhibition of SphK2 (unknown origin)
HepG2 [10] = assay: Induction of apoptosis in human HepG2 cells assessed as viable cells at 5 uM incubated for 48 hrs by Annexin V/FITC-PI staining based flow cytometry (reference value: 91.15%); format: functional; details: read-out: Activity
HepG2 [11] = assay: Induction of apoptosis in human HepG2 cells assessed as early apoptotic cells at 5 uM incubated for 48 hrs by Annexin V/FITC-PI staining based flow cytometry (reference value: 1.98%); format: functional
HepG2 [12] = assay: Induction of apoptosis in human HepG2 cells assessed as late apoptotic cells at 5 uM incubated for 48 hrs by Annexin V/FITC-PI staining based flow cytometry (reference value: 3.32%); format: functional
HepG2 [13] = assay: Induction of apoptosis in human HepG2 cells assessed as necrotic cells at 5 uM incubated for 48 hrs by Annexin V/FITC-PI staining based flow cytometry (reference value: […]); format: functional
HepG2 [14] = assay: Induction of apoptosis in human HepG2 cells assessed as viable cells at 20 uM incubated for 48 hrs by Annexin V/FITC-PI staining based flow cytometry (reference value: 91.15%); format: functional; details: read-out: Activity
HepG2 [15] = assay: Induction of apoptosis in human HepG2 cells assessed as early apoptotic cells at 20 uM incubated for 48 hrs by Annexin V/FITC-PI staining based flow cytometry (reference value: 1.98%); format: functional
HepG2 [16] = assay: Induction of apoptosis in human HepG2 cells assessed as late apoptotic cells at 20 uM incubated for 48 hrs by Annexin V/FITC-PI staining based flow cytometry (reference value: 3.32%); format: functional
HepG2 [17] = assay: Induction of apoptosis in human HepG2 cells assessed as necrotic cells at 20 uM incubated for 48 hrs by Annexin V/FITC-PI staining based flow cytometry (reference value: […]); format: functional
HepG2 [18] = assay: Induction of apoptosis in human HepG2 cells assessed as viable cells at 50 uM incubated for 48 hrs by Annexin V/FITC-PI staining based flow cytometry (reference value: 91.15%); format: functional; details: read-out: Activity
HepG2 [19] = assay: Induction of apoptosis in human HepG2 cells assessed as early apoptotic cells at 50 uM incubated for 48 hrs by Annexin V/FITC-PI staining based flow cytometry (reference value: 1.98%); format: functional
HepG2 [20] = assay: Induction of apoptosis in human HepG2 cells assessed as late apoptotic cells at 50 uM incubated for 48 hrs by Annexin V/FITC-PI staining based flow cytometry (reference value: 3.32%); format: functional
HepG2 [21] = assay: Induction of apoptosis in human HepG2 cells assessed as necrotic cells at 50 uM incubated for 48 hrs by Annexin V/FITC-PI staining based flow cytometry (reference value: […]); format: functional
HepG2 [22] = assay: Inhibition of cell migration in human HepG2 cells assessed as scratch healing incubated for 24 to 48 hrs by wound healing assay; format: functional, cell-based; details: dose 10-30 µM, time lower 24.0 hrs, time upper […]
Mus musculus = assay: In vivo inhibition SphK2 in female C57BL/6j mouse assessed as decrease in plasma SIP level at 10 to 30 mg/kg, ip measured after 4 hrs by SIP competitive ELISA method; format: functional, organism-based; details: dose 10-30 mg/kg
HepG2 [23] = assay: Induction of cell cycle arrest in human HepG2 cells assessed as accumulation of cell at G2 phase at 0 to 50 uM incubated for 48 hrs by PI staining based flow cytometric analysis; format: functional; details: dose 0-50 µM
Sphingosine kinase 1 = Sphingosine kinase 1 (Homo sapiens, UniProt Q9NYA1); assay: Inhibition of SphK1 (unknown origin)
Sphingosine kinase 1, sequence (Q9NYA1 whole entry): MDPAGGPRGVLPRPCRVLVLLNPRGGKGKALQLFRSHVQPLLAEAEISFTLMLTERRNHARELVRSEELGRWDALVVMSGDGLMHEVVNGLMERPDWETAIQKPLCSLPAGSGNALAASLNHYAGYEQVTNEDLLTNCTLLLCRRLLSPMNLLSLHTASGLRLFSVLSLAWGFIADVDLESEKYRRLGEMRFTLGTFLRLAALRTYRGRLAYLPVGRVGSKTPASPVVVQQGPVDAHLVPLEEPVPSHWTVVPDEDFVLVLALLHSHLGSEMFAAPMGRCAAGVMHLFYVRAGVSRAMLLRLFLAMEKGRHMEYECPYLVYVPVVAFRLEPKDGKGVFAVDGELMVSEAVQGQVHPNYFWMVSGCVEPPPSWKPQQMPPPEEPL

SMILES	IC50 at 48 h [1]	IC50 (HepG2 [2])	IC50 (Hepa 1-6)	IC50 (MC-38)	IC50 (MCF7)	further results
NC(=O)[C@@H]1CCCN1C(=O)Cc1ccc(-c2ccc(OCc3ccc(Cl)cc3)nc2)cc1	> 100 µM	34.4 µM	27.2 µM	40.5 µM	25.4 µM	–
NC(=O)[C@@H]1CCCN1C(=O)Cc1ccc(-c2ccc(OCc3ccccc3)nc2)cc1	> 100 µM	> 100 µM	66.3 µM	> 100 µM	> 100 µM	–
CCCCCOc1ccc2cc(-c3noc([C@@H]4[C@@H](O)CCN4C(=N)N)n3)ccc2c1	–	–	–	–	–	IC50 (Sphingosine kinase 2 [3]): 1.5 µM
O=C(Cc1ccc(-c2cnc(OCc3ccc(C(F)(F)F)cc3)cn2)cc1)N1CCC[C@H]1CO	> 100 µM	17.6 µM	26.2 µM	36.3 µM	32.1 µM	solubility [4]: 38.6 µM (≈ 18.2 µg/mL); solubility [5]: 164 µM (≈ 77.5 µg/mL); solubility [6]: 60.4 µM (≈ 28.5 µg/mL); Activity (HepG2 [7]): Dose-Dependent Effect; Activity (HepG2 [8]): Dose-Dependent Effect
O=C(Cc1ccc(-c2ccc(OCc3ccc(Cl)c(Cl)c3)nc2)cc1)N1CCC(O)CC1	> 100 µM	> 100 µM	59.2 µM	16.4 µM	36.3 µM	solubility [4]: 11.6 µM (≈ 5.48 µg/mL); solubility [5]: 183 µM (≈ 86.5 µg/mL); solubility [6]: 59.6 µM (≈ 28.1 µg/mL)
NC(=O)[C@@H]1CCCN1C(=O)Cc1ccc(-c2ccc(OCc3ccc(Cl)c(Cl)c3)nc2)cc1	> 100 µM	67.9 µM	37.5 µM	> 100 µM	32.7 µM	–
O=C(Cc1ccc(-c2ccc(OCc3ccc(Cl)cc3)nc2)cc1)N1CCC[C@H]1CO	> 100 µM	27.2 µM	49.1 µM	57.4 µM	53.4 µM	–
CS(=O)(=O)c1ccc(-c2sc(NS(=O)(=O)c3ccc(Br)cc3)nc2-c2ccccc2)cc1	–	–	–	–	–	IC50 (Sphingosine kinase 2 [9]): > 10 µM
O=C(NCc1ccncc1)C12CC3CC(C1)CC(c1ccc(Cl)cc1)(C3)C2 [ABC-294640]	> 100 µM	25.6 µM	41.9 µM	34.6 µM	33.5 µM	IC50 (Sphingosine kinase 2 [3]): 11.4 µM
O=C(Cc1ccc(-c2ccc(OCc3ccc(Cl)c(Cl)c3)nc2)cc1)N1CCC[C@H]1CO	> 100 µM	25.4 µM	46.1 µM	20.9 µM	14.7 µM	solubility [4]: 6.87 µM (≈ 3.24 µg/mL); solubility [5]: 197 µM (≈ 92.6 µg/mL); solubility [6]: 46.9 µM (≈ 22.1 µg/mL); viability at 5 µM (HepG2 [10]): 85.7%; Activity (HepG2 [11]): 0.93%; Activity (HepG2 [12]): 6.61%; Activity (HepG2 [13]): 6.77%; viability at 20 µM (HepG2 [14]): 82.9%; Activity (HepG2 [15]): 1.46%; Activity (HepG2 [16]): 11.01%; Activity (HepG2 [17]): 4.62%; viability at 50 µM (HepG2 [18]): 67.6%; Activity (HepG2 [19]): 11.1%; Activity (HepG2 [20]): 10.09%; Activity (HepG2 [21]): 11.19%; Activity (HepG2 [7]): Dose-Dependent Effect; Activity (HepG2 [8]): Dose-Dependent Effect; Activity (HepG2 [22]): Dose-Dependent Effect; Activity (Mus musculus): Active; Activity (HepG2 [23]): Active
CCCCCCCCc1ccc(CC[C@](N)(CO)COC)cc1	–	–	–	–	–	Ki (Sphingosine kinase 1): 50 µM
O=C(Cc1ccc(-c2cnc(OCc3ccc(Cl)cc3)cn2)cc1)N1CCC[C@H]1CO	> 100 µM	46.4 µM	57.4 µM	> 100 µM	> 100 µM	–
